The source of these data is ChEMBL document CHEMBL1201862, “PubChem BioAssay data set” (2004).

Some test systems named below: MOLT-4; OVCAR-4; A498; MDA-N; NCI/ADR-RES; SK-MEL-28; COLO 205; UO-31; SF-539; HOP-92; A549; RPMI-8226; DU-145; PC-3; 786-0; IGROV-1; SK-OV-3; SNB-19; HL-60; BT-549.
Holding throughout (test): growth of human tumour cells (NCI), 48 h

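Five concentrations, 48 hours, 96-well plates. The concentration for 50% growth inhibition is given as GI50.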 Calls of active or inactive are those of the source. Rule as the data show it: active = GI50 up to about 1.1 µM and inactive = higher.

With `N=C(N)NCCN1CC2CCC(CC2)C1`, the GI50 in the test with MOLT-4 was > 100 µM (inactive); in the test with OVCAR-4, > 100 µM (inactive); in the test on A498 it was > 100 µM (inactive); in the test on MDA-N it was 51.9 µM (inactive); in the test with NCI/ADR-RES, > 100 µM (inactive); in the test on SK-MEL-28 it was > 100 µM (inactive). The GI50 in the test with COLO 205 is 93.1 µM (inactive); with UO-31, > 100 µM (inactive); in the test with SF-539, > 100 µM (inactive); in the test on HOP-92 it was 25.6 µM (inactive); with A549, > 100 µM (inactive); in the test with RPMI-8226, > 100 µM (inactive). Besides, the GI50 in the test on DU-145 is > 100 µM (inactive); in the test on PC-3, 44.1 µM (inactive); with 786-0, > 100 µM (inactive); with IGROV-1, > 100 µM (inactive); in the test with SK-OV-3, > 100 µM (inactive); in the test on SNB-19 it was > 100 µM (inactive).
As for `CCOc1c(Br)cc(Br)cc1C=C(C#N)C#N`, the GI50 is 0.227 µM (active) in the test with HL-60; 2.05 µM (inactive) with MOLT-4; > 10 µM (inactive) in the test with OVCAR-4; 1.49 µM (inactive) with A498; 1.83 µM (inactive) in the test with MDA-N; 1.27 µM (inactive) in the test on NCI/ADR-RES. Moreover, the GI50 was 8.26 µM (inactive) in the test on SK-MEL-28; > 10 µM (inactive) in the test with COLO 205; 3.36 µM (inactive) with SF-539; 4.19 µM (inactive) in the test with HOP-92; > 10 µM (inactive) with A549; 0.942 µM (active) in the test on RPMI-8226. Also, the GI50 was > 10 µM (inactive) in the test with PC-3; 7.01 µM (inactive) in the test on 786-0; 4.29 µM (inactive) with IGROV-1; > 10 µM (inactive) in the test on SK-OV-3; 5.73 µM (inactive) in the test with SNB-19.
Consider `COc1cc(C2c3cc4c(cc3OC(NNS(=O)(=O)c3ccc(C)cc3)C2C)OCO4)cc(OC)c1O` (stereo not given), for which the GI50 in the test on HL-60 was 9.33 µM (inactive); in the test on MOLT-4, 2.52 µM (inactive); in the test with OVCAR-4 it was 6.32 µM (inactive); with A498 it was 7.98 µM (inactive); in the test with MDA-N, 5.21 µM (inactive); in the test with NCI/ADR-RES, 6.68 µM (inactive). For the same compound, the GI50 in the test with SK-MEL-28 was 28.9 µM (inactive); in the test with COLO 205, 19.2 µM (inactive); with SF-539, 6.53 µM (inactive); in the test with HOP-92, 14.5 µM (inactive); with A549, 11.7 µM (inactive); with RPMI-8226, 10.1 µM (inactive). In addition, the GI50 was 33.8 µM (inactive) in the test with DU-145; 3.87 µM (inactive) in the test on PC-3; 16.6 µM (inactive) in the test with 786-0; 9.25 µM (inactive) in the test with IGROV-1; 11.3 µM (inactive) in the test with SK-OV-3; 16.2 µM (inactive) in the test on SNB-19.
On to `CC1(C)O[C@@H]([C@H](O)CO)[C@H](O)[C@@H](C2SCCCS2)O1`, for which the GI50 in the test with MOLT-4 is > 10 µM (inactive); in the test on OVCAR-4, > 100 µM (inactive); with A498 it was 59.8 µM (inactive); with NCI/ADR-RES, > 100 µM (inactive); in the test with SK-MEL-28, > 100 µM (inactive); in the test on COLO 205, > 100 µM (inactive). Besides, the GI50 is > 100 µM (inactive) in the test with BT-549; > 100 µM (inactive) in the test with UO-31; > 100 µM (inactive) with SF-539; 34.4 µM (inactive) in the test with HOP-92; > 100 µM (inactive) with A549; 50.6 µM (inactive) with RPMI-8226. Further, the GI50 with DU-145, with PC-3, in the test with 786-0, in the test on IGROV-1, with SK-OV-3 and with SNB-19 was > 100 µM (inactive) in each case.
As for `COc1cccc(-c2cc(O)c3cc(N4CCCC4)ccc3n2)c1`, the GI50 in the test on HL-60 is < 0.001 µM (active); in the test on MOLT-4 it was < 0.001 µM (active); with OVCAR-4, 2.67 µM (inactive); in the test with MDA-N, < 0.001 µM (active); in the test with NCI/ADR-RES it was < 0.001 µM (active); in the test with SK-MEL-28 it was < 0.001 µM (active). The GI50 was < 0.001 µM (active) in the test on COLO 205; < 0.001 µM (active) with UO-31; < 0.001 µM (active) in the test with SF-539; 0.00112 µM (active) in the test with HOP-92; < 0.001 µM (active) in the test on A549; < 0.001 µM (active) with RPMI-8226. In addition, the GI50 in the test with DU-145 is < 0.001 µM (active); in the test on PC-3, < 0.001 µM (active); in the test on 786-0, < 0.001 µM (active); with IGROV-1, 0.005 µM (active); in the test with SK-OV-3, < 0.001 µM (active); in the test on SNB-19, < 0.001 µM (active).
Take `COc1cccc(C2CC(=O)c3cccn32)c1` (stereo not given): the GI50 is 32.4 µM (inactive) in the test on HL-60; 71.8 µM (inactive) in the test on MOLT-4; > 100 µM (inactive) in the test with OVCAR-4; > 100 µM (inactive) with A498; > 100 µM (inactive) in the test with NCI/ADR-RES; > 100 µM (inactive) in the test with SK-MEL-28. The GI50 in the test on COLO 205 was > 100 µM (inactive); in the test on UO-31, 29.4 µM (inactive); in the test with SF-539, > 100 µM (inactive); in the test with HOP-92, > 100 µM (inactive); in the test with A549 it was 94.6 µM (inactive); in the test with RPMI-8226, > 100 µM (inactive). The GI50 in the test on DU-145 was > 100 µM (inactive); with PC-3 it was 73.3 µM (inactive); in the test with 786-0, > 100 µM (inactive); in the test with IGROV-1, > 100 µM (inactive); in the test on SK-OV-3, > 100 µM (inactive); in the test on SNB-19, > 100 µM (inactive).
For `CN(C)c1[se]nc2c1c(=O)n(C)c(=O)n2C`, the GI50 with HL-60, in the test with MOLT-4, in the test with OVCAR-4, with A498, in the test on SK-MEL-28 and with COLO 205 was > 100 µM (inactive) throughout. Further, the GI50 in the test on UO-31, in the test with SF-539, in the test with HOP-92, with A549, in the test with RPMI-8226 and with 786-0 was > 100 µM (inactive) each time. The GI50 in the test on IGROV-1, in the test on SK-OV-3 and in the test with SNB-19 was > 100 µM (inactive) each time.
As for `C=CCNC(=S)N/C=C(\C#N)C(N)=O`, the GI50 in the test with HL-60, with MOLT-4, with OVCAR-4, in the test on A498, in the test on MDA-N and in the test on NCI/ADR-RES was > 100 µM (inactive) in each case. Besides, the GI50 with SK-MEL-28, in the test with COLO 205, in the test with UO-31, in the test on SF-539, with A549 and in the test with RPMI-8226 was > 100 µM (inactive) each time. The GI50 in the test with DU-145, in the test on PC-3, with 786-0, with IGROV-1, in the test with SK-OV-3 and in the test on SNB-19 was > 100 µM (inactive) in each case.
